Values after ≈ are worked out from the molar mass of the structure shown. Where a SMILES comes first, the peptide text is derived from it. Bridges are numbered along the chain shown (N, C = ends). The star is where a group is joined. Orn(α-tetramethylguanidino) = CN(C)C(=N[C@@H](CCCN)C(=O)*)N(C)C
Tests used:
RAW 264.7 macrophages = format: cell-based, mouse
Experimental: To quantify peptide uptake, RAW 264.7 macrophages were grown in 12-well plates (2.5 × 10^5 cells/mL, 750 μL/well) for 24 h. Then, the cells were treated with FITC-N6NH2 and FITC-GUON6NH2 (1, 5, 10, 25, and 50× MIC) for 18 h and washed with PBS. To avoid the influence of membrane-bound FITC-labeled peptides, the cells were incubated with 0.04% trypan blue in PBS for 15 min and the fluorescence intensity was analyzed using a FACS Calibur Flow Cytometer (BD, United States) ([Duchardt et al., 2009]).

S. typhimurium ATCC14028 = format: cell-based, Salmonella typhimurium
Experimental: (§1) The antimicrobial activity of peptides was determined by the microbroth dilution method ([Zhang et al., 2014]). The bacterial strains were incubated in Mueller-Hinton (MH) medium at 28°C or 37°C overnight. Bacteria (1 × 10^5 CFU/mL) were added into 96-well plates, followed by the addition of serial dilutions of peptides (from 0.0625 to 128 μg/mL). The plates were incubated at 37°C for 18–24 h. The minimal inhibitory concentration (MIC) value was determined as the lowest peptide concentration at which no bacterial growth was observed.

Edwardsiella tarda = format: cell-based
Experimental: as §1

[1] = system: Staphylococcus aureus ATCC43300; format: cell-based
Experimental: as §1

Escherichia coli CVCC195 = format: cell-based
Experimental: as §1

[2] = system: Salmonella pullorum CVCC1802; format: cell-based
Experimental: as §1

[3] = system: Salmonella typhimurium CVCC533; format: cell-based; conditions: murium CVCC533
Experimental: as §1

[4] = system: Staphylococcus hyicus 437-2; format: cell-based
Experimental: as §1

E. tarda = assay: SEM and TEM morphology; format: cell-based, Edwardsiella tarda; conditions: 4× MIC, 2 h
Experimental: To further characterize the bactericidal effects of the peptides, scanning electron microscopy (SEM) and transmission electron microscopy (TEM) were used to visualize morphological changes ([Yang et al., 2019]). E. tarda was cultured to logarithmic growth stage (10^8 CFU/mL) and diluted with 0.01 M PBS (pH 7.4) to OD600 nm = 1. E. tarda cells were treated with 4× MIC peptides at 37°C for 2 h and the untreated cells were used as the control. Briefly, after centrifugation, the bacterial cells were washed three times with 0.1 M PBS (pH 7.2) and fixed overnight at 4°C with 2.5% glutaraldehyde. After washing again, the cells were fixed with 1% osmium tetroxide (OsO4) for 2 h and dehydrated in a graded ethanol series (50%–70%–85%–95% × 2–100%, × 2) for 15 min, respectively. The samples were then dried by CO2, sputtered with gold-palladium, and observed on a QUANTA200 SEM (FEI, Philips, Netherlands).
E. tarda cells were treated peptides before fixation as described above. The bacteria were washed with 0.01 M PBS (pH 7.4) for five times, 7 min each time, and fixed with 1% osmium acid buffer (4°C) for 1 h. After dehydration with a graded acetone series (30%–50%–70%–85%–95%–100% × 3), the cells were immersed in mixtures of acetone and resin (3:1, 1:1 and 1:3, respectively) for 40 min and in a pure epoxy resin overnight. The samples were then embedded in embedding medium and polymerized at 45°C for 3 h and at 65°C for 24 h, respectively. The sections were prepared using an ultramicrotome, stained with 1% uranyl acetate, and visualized by a JEM1400 (JEDL, Tokyo, Japan).

LPS = LPS binding, BODIPY-TR-cadaverine (BC) probe displacement; conditions: 0.5 μM LPS, 5 μM BC, Tris buffer pH 7.4; peptides 0.049 to 50 μM
Experimental: The BODIPY’-TR-cadaverine (BC) probe was used to determine the ability of peptides to bind to LPS ([Wang et al., 2020]). 0.5 μM LPS was incubated with 5 μM BC in […] Tris buffer (pH 7.4) for 4 h at 37°C. Subsequently, the peptides were added into the mixture and the final concentrations of peptides ranged from 0.049 to 50 μM. Ampicillin was used as the negative control. Changes in fluorescence were measured by a fluorescence spectrophotometry at room temperature (excitation/emission, 580/620 nm).

murine erythrocytes = format: cell-based, mouse
Experimental: The hemolysis of peptides was evaluated by determining the amount of hemoglobin that was released from fresh mouse erythrocytes ([Flamm et al., 2019]). The blood cells were washed three times with 10 mM PBS (pH 7.4) and centrifuged for 10 min (1,500 rpm). Erythrocyte solution (8%, v/v) was mixed with peptide solutions (1:1) and incubated for 1 h at 37°C. The mixture was then centrifuged for 5 min (1,500 rpm), and the absorbance of supernatants was measured at 540 nm. Values of 0 and 100% hemolysis were determined in PBS and 0.1% triton X-100, respectively. The hemolysis of peptides was calculated using the following formula: Hemolysis (%) = [(Abs treated sample – Abs negative control)/(Abs positive control – Abs negative control)] × 100.

[5] = system: intracellular E. tarda in RAW 264.7 macrophages; format: cell-based, Edwardsiella tarda; conditions: for killing of intracellular bacteria: 5–50× MIC, RAW 264.7; for killing of intracellular bacteria / killing efficacy against intracellular E. tarda: 18 h; for killing efficacy against intracellular E. tarda: 1
Experimental: For intracellular activity, RAW 264.7 macrophages (2.5 × 10^5 cells/mL) were cultured for 24 h in DMEM with 10% FBS (without antibiotics) ([Edwards and Massey, 2011]). Meanwhile, mid-log phase E. tarda were collected by centrifugation, diluted to a concentration of 2.5 × 10^8 CFU/mL in DMEM with 10% FBS (without antibiotic), and incubated with RAW 264.7 macrophages for 0.5 h. Gentamicin (1,000 μg/mL) was then added into the cells and incubated for 30 min to remove extracellular bacteria. After washing twice with PBS, […], washed again, and lysed with Hanks buffered saline solution (0.1% bovine serum albumin and 0.1% Triton-X). The numbers of intracellular bacteria were counted at 0 and 18 h, respectively.

SMILES | percentages of florescent cells (RAW 264.7 macrophages) | MIC (S. typhimurium ATCC14028) [µg/mL] | MIC (Edwardsiella tarda) [µg/mL] | MIC [1] [µg/mL] | MIC (Escherichia coli CVCC195) [µg/mL] | MIC [2] [µg/mL] | MIC [3] [µg/mL] | MIC [4] [µg/mL] | morphological changes by SEM (E. tarda) | ability to bind to LPS (BC probe displacement) (LPS) | MHC (murine erythrocytes) [µg/mL] | killing of intracellular bacteria [5] | killing efficacy against intracellular E. tarda [5] | intracellular inhibition rate against E. tarda ([5]; 24 h, 50) | cytotoxicity and hemolysis (murine erythrocytes; red cells of mouse, 1 h) [%]
CC(C)[C@@H]1NC(=O)CNC(=O)[C@H](CC(N)=O)NC(=O)[C@H](CCCNC(=N)N)NC(=O)[C@H](Cc2ccc(O)cc2)NC(=O)[C@H](C(C)C)NC(=O)[C@@H](NC(=O)[C@@H](NC(=O)[C@H](CC(N)=O)NC(=O)[C@H](Cc2c[nH]c3ccccc23)NC(=O)[C@H](C)NC(=O)[C@H](Cc2ccccc2)NC(=O)CN)C(C)C)CSSC[C@@H](C(=O)N[C@@H](Cc2cnc[nH]2)C(=O)N[C@@H](CCCNC(=N)N)C(=O)N[C@@H](CCCNC(=N)N)C(=O)N[C@@H](C)C(=O)N[C@@H](CC(N)=O)C(N)=O)NC(=O)[C@H](C(C)C)NC(=O)[C@H](CCCNC(=N)N)NC1=O [N6NH2] | 27.6–79.8% | 4 (≈ 1.62 µM) | 8 (≈ 3.23 µM) | 16 (≈ 6.46 µM) | 4 (≈ 1.62 µM) | 4 (≈ 1.62 µM) | 4 (≈ 1.62 µM) | 32 (≈ 12.9 µM) | some protrusions were observed on the cell surfaces | V112N6NH2 > GUON6NH2 > N6NH2 > DN6NH2 > N6PNH2 | >128 | killed all intracellular bacteria | 96.82% | 96.82–100% | 
CC(C)[C@@H]1NC(=O)CNC(=O)[C@H](CC(N)=O)NC(=O)[C@H](CCCNC(=N)N)NC(=O)[C@H](Cc2ccc(O)cc2)NC(=O)[C@H](C(C)C)NC(=O)[C@@H](NC(=O)[C@@H](NC(=O)[C@H](CC(N)=O)NC(=O)[C@H](Cc2c[nH]c3ccccc23)NC(=O)[C@H](C)NC(=O)[C@H](Cc2ccccc2)NC(=O)[C@H](CCCN)N=C(N(C)C)N(C)C)C(C)C)CSSC[C@@H](C(=O)N[C@@H](Cc2c[nH]cn2)C(=O)N[C@@H](CCCNC(=N)N)C(=O)N[C@@H](CCCNC(=N)N)C(=O)N[C@@H](C)C(=O)N[C@@H](CC(N)=O)C(N)=O)NC(=O)[C@H](C(C)C)NC(=O)[C@H](CCCNC(=N)N)NC1=O [GUON6NH2] ({Orn(α-tetramethylguanidino)}-FAWNVCVYRNGVRVCHRRAN-NH2; disulfide 6-15) | 16.1–86.5% | 4 (≈ 1.52 µM) | 8 (≈ 3.04 µM) | 16 (≈ 6.08 µM) | 4 (≈ 1.52 µM) | 4 (≈ 1.52 µM) | 8 (≈ 3.04 µM) | 32 (≈ 12.2 µM) | some protrusions were observed on the cell surfaces | V112N6NH2 > GUON6NH2 > N6NH2 > DN6NH2 > N6PNH2 | >128 | killed all intracellular bacteria | over 97.07% |  | < 1

— paper PMC7985170, “Marine Peptide-N6NH2 and Its Derivative-GUON6NH2 Have Potent Antimicrobial Activity Against Intracellular Edwardsiella tarda in vitro and in vivo” (Frontiers in Microbiology, 2021)
